Tests used:
scid-beige mice = assay: Transplantation of differentiated cells under the kidney capsule, human C-peptide ELISA (Example 18); type: in vivo, mouse; conditions: 8-weeks post-transplant; cells treated in step 1 as named (compounds with GDF-8)
Protocol: Five to six-week-old male scid-beige mice (C.B-Igh-1 b1 GbmsTac-Prkdc^scid-Lyst^bgN7) were purchased from Taconic Farms. Mice were housed in microisolator cages with free access to sterilized food and water. In preparation for surgery, mice were identified by ear tagging, their body weight was measured, and their blood glucose was determined using a hand held glucometer (LifeScan; One Touch). On the day of surgery, mice were anesthetized with a mixture of isolflurane and oxygen, and the surgical site was shaved with small animal clippers. Mice were dosed with 0.1 mg·kg Buprenex subcutaneously pre-operatively. The surgical site was prepared with successive washes of 70% isopropyl alcohol, 10% povidone-iodide, and 70% isopropyl alcohol, and a left lateral incision was made through the skin and muscle layers. […]
Following transplantation, mice were weighed once per week and blood glucose was measured twice per week. […] Human C-peptide levels were determined using the Mercodia/ALPCO Diagnotics Ultrasensitive C-peptide ELISA according to the manufacturer's instructions.
ELISA results for human C-peptide are shown in FIG. 23 for mice transplanted with cells from each of the respective treatment groups. No circulating human C-peptide was detected at four weeks post-transplant for any mice receiving cells from any of the treatment groups.

[1] = test system: H1 human embryonic stem cells; assay: Single-cell monolayer assay with EGF/FGF4, serum free, no activin A (Example 10, Table 10); type: cell-based; conditions: No AA (without Wnt3a); FGF(100 ng/ml); EGF(100 ng/ml)

| SMILES | mice with detectable C-peptide (scid-beige mice) | Sox17 Expression, Average Total Intensity [1] |
| --- | --- | --- |
| C=CCN1CC(=O)NCCCc2cncc(c2)-c2ncnc(n2)Nc2cccc(c2)C1 [Compound 40, 14-Prop-2-en-1-yl-3,5,7,14,17,23,27-heptaazatetracyclo[19.3.1.1˜2.6˜0.1˜8,12˜]heptacosa-1(25), 2(27), 3,5,8(26), 9,11,21,23-nonaen-16-one] | one of three mice |  |
| O=C1CCN2CCN(CC2)Cc2cc(Cl)cc(c2)Nc2ncnc(n2)-c2cncc(c2)CCCN1 [Compound 34, 5-Chloro-1,8,10,12,16,22,26,32-octaazapentacyclo[24.2.2.1˜3.7˜0.1˜9,13˜0.1˜14.18˜]tritriaconta-3(33), 4,6,9(32), 10,12,14(31), 15,17-nonaen-23-one] |  | 1.13E+08 |

— patent US9593305B2, “Differentiation of pluripotent stem cells” (Janssen Biotech, Inc., priority 2008, dated 2017)
